Measurements taken from patent US12097261B2, “CDK2 degraders and uses thereof” (Kymera Therapeutics, Inc., priority 2021, dated 2024).

How the values were obtained:
Format in all cases: cell-based
CDK2 = target: T1, CDK2 (Homo sapiens, UniProt P24941); assay: CDK2 degradation by immunoblotting in OVCAR-8 cells; conditions: 24 h
T1 construct: endogenous in cells; host or cells: OVCAR-8
Procedure: (§1) CDK2 and CDK1 Degradation by Immunoblotting
(§2) Ovarian cancer cell line OVCAR-8 were cultured in 12-well plates in complete growth medium. A serial dilution of each compound was added to individual wells from a 2× stock solution, and cells were cultured for 24 hours. Cells were collected by centrifugation, and cell pellets lysed with addition of chilled RIPA buffer supplemented with protease/phosphatase inhibitors followed by incubation for 20 minutes on ice. Lysates were clarified by centrifugation and 5×SDS loading buffer was added to the supernatant followed by heating to 100° C. for 10 minutes. An aliquot of the samples were separated by SDS-PAGE and transferred to a nitrocellulose membrane. Immunoblotting was performed according to standard procedures using anti-CDK2 primary antibody (Abcam ab32147) at 1:1000 dilution and IRDye 800CW goat anti-Rabbit secondary antibody (LICOR) and imaged using a LICOR Odyssey instrument. Blots were stained with anti-beta-Actin primary antibody (Cell Signaling Technology mAb #4970) for normalization. The normalized CDK2/Actin values were calculated as a percent of DMSO treated cells and plotted to determine the concentration at which 50% of CDK2 signal is decreased (DC50). The determination of CDK1 degradation was determined similarly using anti-CDK1 primary antibody (Abcam ab131450).

CDK1 = target: T2, CDK1 (Homo sapiens, UniProt P06493); assay: CDK1 degradation by immunoblotting in OVCAR-8 cells; conditions: 24 h
T2 construct: endogenous in cells; host or cells: OVCAR-8
Procedure: as §1, §2

CCNE1 = target: T3, CCNE1 (Homo sapiens, UniProt P24864+P24941); assay: CCNE1 degradation in MKN-1 cells by immunoblotting; conditions: 24 h, by WB, read-out: Cyclin E1 DC50, (MKN-1 by WB)
T3 construct: endogenous in cells; host or cells: MKN-1
Procedure: CCNE1 Degradation in MKN-1 Cells
Gastric cancer cell line MKN-1 were cultured in 6-well plates in complete growth medium. A serial dilution of each compound was added to individual wells from a 2× stock solution, and cells were cultured for 24 hours. Following 24-hr incubation, cells were lysed with addition of chilled RIPA buffer supplemented with protease/phosphatase inhibitors followed by incubation for 20 minutes on ice. Lysates were clarified by centrifugation and 5×SDS loading buffer was added to the supernatant followed by heating to 100° C. for 10 minutes. An aliquot of the samples were separated by SDS-PAGE and transferred to a nitrocellulose membrane. Immunoblotting was performed according to standard procedures using anti-CCNE1 primary antibody (Abcam #ab33911) at 1:1000 dilution and IRDye 800CW goat anti-Rabbit secondary antibody (LICOR) and imaged using a LICOR Odyssey instrument. Blots were stained with anti-beta-Actin primary antibody (Cell Signaling Technology mAb 43700) for normalization. The normalized CCNE1/Actin values were calculated as a percent of DMSO treated cells and plotted to determine the concentration at which 50% of CCNE1 signal is decreased.

T2 sequence (P06493 whole entry): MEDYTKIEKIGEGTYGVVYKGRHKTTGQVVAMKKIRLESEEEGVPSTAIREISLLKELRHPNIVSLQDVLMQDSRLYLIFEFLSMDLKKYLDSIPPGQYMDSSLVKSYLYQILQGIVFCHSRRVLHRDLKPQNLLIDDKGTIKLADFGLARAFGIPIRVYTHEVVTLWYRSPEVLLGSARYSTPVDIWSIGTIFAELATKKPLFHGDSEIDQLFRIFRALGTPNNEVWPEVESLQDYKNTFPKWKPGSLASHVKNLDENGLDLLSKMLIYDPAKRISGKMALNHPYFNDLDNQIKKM

DC50 (CDK2) | DC50 (CDK1) | DC50 (CCNE1) | SMILES
< 0.01 µM | 0.1 to 1 µM | – | CC(C)NC(=O)O[C@@H]1CC[C@H](c2cc(CC(=O)c3cc(COCCCCCCCc4cccc5c4n(C)c(=O)n5C4CCC(=O)NC4=O)nn3C)[nH]n2)C1 (stereo partly drawn) [I-101]
0.01 to 0.1 µM | 1 to 5 µM | – | CC(C)NC(=O)O[C@@H]1CC[C@H](c2cc(NC(=O)Cc3cnn(CCCCCCCCCc4cccc5c4n(C)c(=O)n5C4CCC(=O)NC4=O)c3)[nH]n2)C1 (stereo partly drawn) [I-104]
< 0.01 µM | 1 to 5 µM | – | Cc1cc(S(=O)(=O)N[C@H]2CC[C@H](OCCOCCCc3ccc4c(c3)n(C)c(=O)n4C3CCC(=O)NC3=O)CC2)ccc1Nc1ncc2ccc(=O)n(C3CCCC3)c2n1 (stereo partly drawn) [I-110]
< 0.01 µM | 0.1 to 1 µM | < 0.01 µM | Cc1cc(S(=O)(=O)NCCO[C@H]2CC[C@H](N(C)CC3CCN(c4ccc5c(c4)n(C)c(=O)n5C4CCC(=O)NC4=O)CC3)CC2)ccc1Nc1ncc2ccc(=O)n(C3CCCC3)c2n1 (stereo partly drawn) [I-117]
< 0.01 µM | 1 to 5 µM | – | Cc1cc(S(=O)(=O)NCCOC2CC3(C2)CN(CC#Cc2ccc4c(c2)n(C)c(=O)n4C2CCC(=O)NC2=O)C3)ccc1Nc1ncc2ccc(=O)n(C3CCCC3)c2n1 (stereo not drawn) [I-126]
> 5 µM | > 5 µM | – | Cc1cc(S(=O)(=O)NCCOCCOCCOCCOCC(=O)N[C@H](C(=O)N2C[C@H](O)C[C@H]2C(=O)NCc2ccc(-c3scnc3C)cc2)C(C)(C)C)ccc1Nc1ncc2ccc(=O)n(C3CCCC3)c2n1 [I-139]
< 0.01 µM | 0.1 to 1 µM | – | CC(C)NC(=O)O[C@H]1CC[C@@H](c2cc(NC(=O)c3cc(COCCCCCCCCCc4ccn5c(N6CCC(=O)NC6=O)cnc5c4)nn3C)[nH]n2)C1 [I-145]
1 to 5 µM | 1 to 5 µM | – | CN[C@@H](C)C(=O)N[C@H](C(=O)N1CCC[C@H]1c1nc(C(=O)c2cccc(OCCCCCCCCCCCn3cc(C(=O)Nc4cc([C@H]5CC[C@@H](OC(=O)NC(C)C)C5)n[nH]4)cn3)c2)cs1)C1CCCCC1 [I-148, (1R,3S)-3-(5-(1-(11-(3-(2-((S)-1-((S)-2-cyclohexyl-2-((S)-2-(methylamino)propanamido)acetyl)pyrrolidin-2-yl)thiazole-4-carbonyl)phenoxy)undecyl)-1H-pyrazole-4-carboxamido)-1H-pyrazol-3-yl)cyclopentyl isopropylcarbamate]
0.01 to 0.1 µM | > 5 µM | – | CC(C)NC(=O)O[C@H]1CC[C@@H](c2cc(NC(=O)c3ccnn3CCOCCOCCOCCOCCCc3ccc4c(c3)n(C)c(=O)n4C3CCC(=O)NC3=O)n[nH]2)C1 (stereo partly drawn) [I-149]
1 to 5 µM | > 5 µM | – | CC(C)NC(=O)O[C@H]1CC[C@@H](c2cc(NC(=O)c3ccnn3CCN3CCN(CCOCCCc4ccc5c(c4)n(C)c(=O)n5C4CCC(=O)NC4=O)CC3)[nH]n2)C1 (stereo partly drawn) [I-151]

The remaining lines, values behind:

SMILES | DC50 (CDK2) | DC50 (CDK1) | DC50 (CCNE1)
CC(C)NC(=O)O[C@@H]1CC[C@H](c2cc(NC(=O)Cc3cnn(CCCCCCCCCc4ccc5c(c4)n(C)c(=O)n5C4CCC(=O)NC4=O)c3)[nH]n2)C1 (stereo partly drawn) [I-102] | 0.01 to 0.1 µM | 0.1 to 1 µM | –
CC(C)NC(=O)O[C@@H]1CC[C@H](c2cc(NC(=O)Cc3cnn(CCCCCCCc4ccc5c(c4)n(C)c(=O)n5C4CCC(=O)NC4=O)c3)n[nH]2)C1 (stereo partly drawn) [I-103, (1R,3S)-3-(3-(2-(1-(7-(1-(2,6-dioxopiperidin-3-yl)-3-methyl-2-oxo-2,3-dihydro-1H-benzo[d]imidazol-5-yl)heptyl)-1H-pyrazol-4-yl)acetamido)-1H-pyrazol-5-yl)cyclopentyl isopropylcarbamate] | 0.01 to 0.1 µM | > 5 µM | –
Cc1cc(S(=O)(=O)NCCO[C@H]2CC[C@H](CN3CCC(c4ccc5c(c4)n(C)c(=O)n5C4CCC(=O)NC4=O)CC3)CC2)ccc1Nc1ncc2cc(Cl)c(=O)n(C3CCCC3)c2n1 (stereo partly drawn) [I-108] | < 0.01 µM | 0.1 to 1 µM | < 0.01 µM
Cc1cc(S(=O)(=O)NCCO[C@H]2CC[C@H](CN3CCC(c4ccc5c(c4)n(C)c(=O)n5C4CCC(=O)NC4=O)CC3)CC2)ccc1Nc1ncc2ccc(=O)n(C3CCCC3)c2n1 (stereo partly drawn) [I-109] | < 0.01 µM | 0.1 to 1 µM | < 0.01 µM
Cc1cc(S(=O)(=O)NCCOC2CC3(C2)CN(Cc2ccc4c(c2)n(C)c(=O)n4C2CCC(=O)NC2=O)C3)ccc1Nc1ncc2ccc(=O)n(C3CCCC3)c2n1 (stereo not drawn) [I-111] | 0.01 to 0.1 µM | 1 to 5 µM | –
Cc1cc(S(=O)(=O)N2CCC(CN(C)C3CCN(c4cccc5c4n(C)c(=O)n5C4CCC(=O)NC4=O)CC3)CC2)ccc1Nc1ncc2ccc(=O)n(C3CCCC3)c2n1 (stereo not drawn) [I-114] | < 0.01 µM | 1 to 5 µM | –
Cc1cc(S(=O)(=O)NCCOC2CCC3(CC2)CCN(CCCc2ccc4c(c2)n(C)c(=O)n4C2CCC(=O)NC2=O)CC3)ccc1Nc1ncc2ccc(=O)n(C3CCCC3)c2n1 (stereo not drawn) [I-124] | < 0.01 µM | 1 to 5 µM | –
Cc1cc(S(=O)(=O)NCCOCCOCCOCCOCCCc2ccc3c(c2)n(C)c(=O)n3C2CCC(=O)NC2=O)ccc1Nc1ncc2c(C)cc(=O)n(C3CCCC3)c2n1 (stereo not drawn) [I-138] | > 5 µM | > 5 µM | –
CC(C)NC(=O)O[C@@H]1CC[C@H](c2cc(NC(=O)c3cnn(CCCCCCCCCCCc4ccn5c(N6CCC(=O)NC6=O)cnc5c4)c3)[nH]n2)C1 [I-142] | 0.01 to 0.1 µM | > 5 µM | –
Cc1cc(S(=O)(=O)NCCOCCOCCCc2ccc3c(c2)n(C)c(=O)n3C2CCC(=O)NC2=O)ccc1Nc1ncc2ccc(=O)n(C3CCCC3)c2n1 (stereo not drawn) [I-146] | < 0.01 µM | 1 to 5 µM | –
Cc1cc(S(=O)(=O)NCCOCCOCCCc2ccc3c(c2)n(C)c(=O)n3C2CCC(=O)NC2=O)ccc1Nc1ncc2c(n1)N(C1CCCC1)C(=O)C21CC1 (stereo not drawn) [I-150] | > 5 µM | > 5 µM | –
